pKi: −log10 of the molar value.
Biological target: Protein Kinase C beta 2 (PKCβII) (Homo sapiens, UniProt P05771)
Test: PKCβII coupled PK/LDH spectrophotometric kinase assay (decrease of NADH absorbance at 340 nm)
Type: biochemical
Conditions: apparent Ki, Morrison fit, 0.1 mM ATP, 30° C., pH 7.4; read-out: PKCb Ki
Experimental: This transfer is coupled to the oxidation of p-NADH through the activities of Pyruvate Kinase (PK) and Lactate Dehydrogenase (LDH).
A typical assay was carried out on a 96-well, clear microtiter plate in a Molecular Devices spectrophotometer for 20 minutes at 30° C. in 0.1 mL of assay buffer containing 50 mM HEPES, pH 7.4, 5 nM PKC, 23 units of pyruvate kinase, 33 units of lactate dehydrogenase, 0.15 mM peptide, 0.1 mM ATP, 1 mM DTT, 4 mM PEP, 8 mM MgCl2, 0.3 mM NADH, 60 mM CaCl2, 10 mg/mL PS, 50 ng/mL PMA, 7.5% DMSO and from about 10,000 nM to 0.169 nM compound inhibitor. Stock solutions of 3-sn-phosphatidyl-L-serine (PS) and phorbol-12-myristate-13-acetate (PMA) were sonicated for 30 seconds just prior to addition to assay buffer and assays were initiated by the addition of 100 μM ATP.
Enzyme turnover values (kcat) were calculated according to […], where [E] is the total enzyme concentration. […] Morrison, J. F., Biochim. Biophys Acta 185: 269-286 (1969).

Protein Kinase C beta 2 (PKCβII), sequence (P05771 1-673 isoform P05771-2): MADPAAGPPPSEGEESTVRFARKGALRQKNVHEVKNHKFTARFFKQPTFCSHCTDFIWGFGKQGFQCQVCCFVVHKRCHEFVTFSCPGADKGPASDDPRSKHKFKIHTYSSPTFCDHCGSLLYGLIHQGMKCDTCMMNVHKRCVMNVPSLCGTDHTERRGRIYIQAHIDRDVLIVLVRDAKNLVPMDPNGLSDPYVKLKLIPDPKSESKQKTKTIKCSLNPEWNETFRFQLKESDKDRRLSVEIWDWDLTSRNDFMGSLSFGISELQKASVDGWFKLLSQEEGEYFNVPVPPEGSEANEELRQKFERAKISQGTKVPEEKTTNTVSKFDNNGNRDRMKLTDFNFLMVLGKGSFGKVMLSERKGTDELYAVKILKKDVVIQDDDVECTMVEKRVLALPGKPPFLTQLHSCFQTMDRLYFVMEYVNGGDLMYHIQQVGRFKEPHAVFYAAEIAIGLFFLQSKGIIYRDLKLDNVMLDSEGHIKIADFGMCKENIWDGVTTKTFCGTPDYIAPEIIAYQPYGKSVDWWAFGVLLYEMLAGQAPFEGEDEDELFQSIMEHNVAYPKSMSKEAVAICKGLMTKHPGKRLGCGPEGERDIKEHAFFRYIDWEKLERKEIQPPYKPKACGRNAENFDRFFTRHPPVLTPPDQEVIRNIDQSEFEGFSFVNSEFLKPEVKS

pKi: 7.43
SMILES: CCOc1cccc(C(=O)Nc2n[nH]c3c2CN(C(=O)N2C[C@@H]4CCCN4C[C@@H]2C)C3(C)C)c1 [Example E5, N-(6,6-dimethyl-5-((3S,8aS)-3-methyl-octahydropyrrolo[1,2-a]pyrazine-2-carbonyl)-1,4,5,6-tetrahydropyrrolo[3,4-c]pyrazol-3-yl)-3-ethoxybenzamide]

Source: patent US8114871B2, “3-amido-pyrrolo[3,4-C]pyrazole-5(1H,4H,6H) carbaldehyde derivatives” (Pfizer Inc., priority 2007, dated 2012)
